Experimental data: patent US20070009544A1, “Anti-allergic complex molecules” (priority 1999, published 2007)
In brackets after ≈: the same amount, converted by molar mass. Numbered stars: 1 amine (or outer) side, 2 acyl side, 3 side chain; on linkers, the order of the positions; unused ones are H or OH. Square brackets hold non-standard residues; d marks the D form. Peptide text beside a SMILES is read from it. Phe(4-NH2) = Nc1ccc(C[C@H](N)C(=O)O)cc1; Suc = O=C(CCC(=O)[*:2])[*:1]

How the values were obtained:
[1] = system: purified rat peritoneal mast cells; assay type: cell-based; conditions: for maximal inhibition of compound 48/80 induced histamine secretion: 600 μg/ml peptide, compound 48/80 concentration not given; for Inhibitor (extent of inhibition of histamine secretion from mast cells): Table 9, incubation with different concentrations of each peptide, then induction of the allergic reaction
Method: 37° C. […] Each data point represents the average of duplicate measurements. The spontaneously released histamine was subtracted.
First, the effect of compound 48/80 on exocytosis from intact mast cells was determined. […] Histamine release was determined and is presented as the net secretion that is % of the total cellular histamine following subtraction of the spontaneously released histamine. Half-maximal release was obtained at 0.1 μg/ml while maximal release was obtained at 1-10 μg/ml. Accordingly, in order to analyze the potential of each peptide to block histamine secretion, histamine secretion was induced with 5 μg/ml compound 48/80, a concentration that induces a maximal histamine release, while the cells were incubated in the presence of increasing concentrations of each peptide.
In order to investigate the ability of these peptides to block allergen-induced exocytosis, the peptides were examined for their ability to block compound 48/80 induced histamine secretion from intact mast cells in vitro. Mast cells were incubated with different concentrations of each peptide, followed by induction of histamine secretion by compound 48/80.

[2] = system: abdominal skin of C.R rats; experiment: Rat skin test: intradermal injection of peptide, then intradermal compound 48/80 or vehicle, wheal area; assay type: in vivo; conditions: for Mean Wheal Area ± STD, Compound 48/80 / Wheal Area, Compound 48/80 (representative experiment): 0.5 hour before allergic induction; for Mean Wheal Area ± STD, Vehicle / Wheal Area, Vehicle (representative experiment): 0.5 hour before; for Mean Wheal Area ± STD, Vehicle: vehicle instead of compound 48/80
Method: The hair of the abdominal area of C.R rats was carefully removed with an electric clipper and a depilatory cream. In each animal the abdominal area was divided to six equal zones that were marked by pen. Each zone was either subjected to peptide treatment or served as a control. In the first set of experiments, the peptide was topically applied as follows: 36 μl of peptide solution at the indicated concentration (dissolved in 72% DMSO in saline) was applied on desired abdominal area. In the second set of experiments, the peptide was injected intradermally as follows: 20 μl of peptide solution at different concentrations (dissolved in 10% DMSO in saline) was injected intradermally to an indicated abdominal area using a 27-gauge sterile needle.
Skin tests were performed 0.5, 1 or 2 hours following application of the peptide. Skin tests were performed by injecting intradermally 20 μl of the allergen (0.1 mg/ml compound 48/80 dissolved in saline) or saline alone, into the center of each marked area on the abdominal skin using a 27-gauge sterile needle. The allergic response was monitored by outlining with a marker the wheals which developed in response to allergen or saline treatment.
To quantitate the skin test results, the marker signs were transferred onto paper with scotch tape. The areas of the wheals were outlined and calculated by a computerized planimeter (Hewlett-Packard), as previously described (Sussman et al., 1982).
Tables 10-16 presents the mean areas of the wheals, which developed in response to intradermal injection of each of the tested peptides, followed by either compound 48/80 or DDW injection applied after 0.5 or 1 hour. Two doses were tested for each peptide-20 and 200 μg (injection of 20 μl from a stock solution of 1 mg/ml or 10 mg/m respectively).
Skin tests on rats using compound 48/80 as the allergen assessed the ability of the peptides of the present invention to block allergic cutaneous reactions. The abdominal skin of the rats was subjected to peptide (indicated concentrations are listed in Tables 17A-17B below) or vehicle treatment (intradermal injection); the allergic response was induced by intradermal injection of compound 48/80 at various times; and the allergic response was quantified by calculating the area of the resultant allergic wheals.

[3] = system: purified rat peritoneal mast cells; experiment: Histamine secretion from intact mast cells incubated with peptide alone (secretagogue side effect); conditions: for Secretagogue (histamine secretion following incubation of mast cell with different concentrations of each peptide): Table 9, no allergen; for Secretagogue (histamine secretion following incubation of mast cell with different concentrations of each peptide) / basal level of histamine secretion compared to control cells: peptide alone; for histamine secretion from mast cells on incubation with increasing concentrations of peptide alone: no additional allergen; for basal level of histamine secretion compared to control cells: increasing concentrations
[4] = intradermal peptide 0.5 hour before allergic induction

CC(C)C[C@H](NC(=O)CNC(=O)[C@H](CS)NC(=O)[C@H](CCC(=O)O)NC(=O)[C@H](CCCCN)NC(=O)[C@H](CC(C)C)NC(=O)[C@H](CC(N)=O)NC(=O)[C@H](CCC(=O)O)NC(=O)[C@H](CCCCN)NC(=O)[C@@H]1CCCN1C(=O)[C@H](C)NC(=O)[C@H](CC(C)C)NC(=O)[C@H](CC(C)C)NC(=O)[C@H](C)NC(=O)[C@H](CC(C)C)NC(=O)[C@H](CC(C)C)NC(=O)[C@@H](NC(=O)[C@H](C)NC(=O)[C@@H]1CCCN1C(=O)[C@H](CC(C)C)NC(=O)[C@H](CC(C)C)NC(=O)[C@H](C)NC(=O)[C@@H](NC(=O)[C@H](C)NC(=O)[C@H](C)NC(=O)CCC(=O)O)C(C)C)C(C)C)C(=O)N[C@@H](Cc1ccc(O)cc1)C(=O)O [WALL012] (Suc-AAVALLPAVLLALLAPKENLKECGLY-OH; C-terminus assumed)
IC50, compound 48/80 induced histamine secretion [1]: 320 µg/mL (≈ 115 µM)
maximal inhibition of compound 48/80 induced histamine secretion [1]: 97.5%
Inhibitor (extent of inhibition of histamine secretion from mast cells) [1]: +++ (+++ Potent inhibitor (≧80% inhibition))
block of compound 48/80 induced allergic reaction in vivo, rat skin ([2]; intradermal peptide): effectively block the allergic response in vivo
Mean Wheal Area ± STD, Compound 48/80 ([2]; intradermal peptide 1 mg/ml): 104.8 ± 12.6 (n = 5) mm^2
Mean Wheal Area ± STD, Vehicle ([2]; intradermal peptide 1 mg/ml): 71.6 ± 13.8 (n = 5) mm^2
Mean Wheal Area ± STD, Compound 48/80 ([2]; intradermal peptide 10 mg/ml): 75.1 ± 8.5 (n = 5)** mm^2
Mean Wheal Area ± STD, Vehicle ([2]; intradermal peptide 10 mg/ml): 66.7 ± 10.1 (n = 5) mm^2
reduction of compound 48/80 induced allergic reaction [2, 4]: significant inhibition
Secretagogue (histamine secretion following incubation of mast cell with different concentrations of each peptide) [3]: −
histamine secretion from mast cells on incubation with increasing concentrations of peptide alone [3]: did not result in histamine secretion
basal level of histamine secretion compared to control cells [3]: minor inhibition of the basal level of histamine secretion

CC(C)C[C@H](NC(=O)CNC(=O)[C@H](CS)NC(=O)[C@H](CCC(=O)O)NC(=O)[C@H](CCCCN)NC(=O)[C@H](CC(C)C)NC(=O)[C@H](CC(N)=O)NC(=O)[C@H](C)NC(=O)[C@H](CCCCN)NC(=O)[C@@H]1CCCN1C(=O)[C@H](C)NC(=O)[C@H](CC(C)C)NC(=O)[C@H](CC(C)C)NC(=O)[C@H](C)NC(=O)[C@H](CC(C)C)NC(=O)[C@H](CC(C)C)NC(=O)[C@@H](NC(=O)[C@H](C)NC(=O)[C@@H]1CCCN1C(=O)[C@H](CC(C)C)NC(=O)[C@H](CC(C)C)NC(=O)[C@H](C)NC(=O)[C@@H](NC(=O)[C@H](C)NC(=O)[C@H](C)NC(=O)CCC(=O)O)C(C)C)C(C)C)C(=O)N[C@@H](Cc1ccc(O)cc1)C(=O)O [WALL013] (Suc-AAVALLPAVLLALLAPKANLKECGLY-OH; C-terminus assumed)
IC50, compound 48/80 induced histamine secretion [1]: 245 µg/mL (≈ 89.5 µM)
maximal inhibition of compound 48/80 induced histamine secretion [1]: 100%
Inhibitor (extent of inhibition of histamine secretion from mast cells) [1]: +++ (+++ Potent inhibitor (≧80% inhibition))
block of compound 48/80 induced allergic reaction in vivo, rat skin ([2]; intradermal peptide): effectively block the allergic response in vivo
Mean Wheal Area ± STD, Compound 48/80 ([2]; intradermal peptide 1 mg/ml): 89.7 ± 13.7 (n = 4)** mm^2
Mean Wheal Area ± STD, Vehicle ([2]; intradermal peptide 1 mg/ml): 74.7 ± 12.0 (n = 4) mm^2
Mean Wheal Area ± STD, Compound 48/80 ([2]; intradermal peptide 10 mg/ml): 96.4 ± 28.4 (n = 4)* mm^2
Mean Wheal Area ± STD, Vehicle ([2]; intradermal peptide 10 mg/ml): 77.3 ± 13.5 (n = 4) mm^2
reduction of compound 48/80 induced allergic reaction [2, 4]: significantly reduced
Secretagogue (histamine secretion following incubation of mast cell with different concentrations of each peptide) [3]: −
histamine secretion from mast cells on incubation with increasing concentrations of peptide alone [3]: did not result in histamine secretion
basal level of histamine secretion compared to control cells [3]: minor inhibition of the basal level of histamine secretion

CC(C)C[C@H](NC(=O)CNC(=O)[C@H](CS)NC(=O)[C@H](CCC(=O)O)NC(=O)[C@H](CCCCN)NC(=O)[C@H](CC(C)C)NC(=O)[C@H](CC(N)=O)NC(=O)[C@H](CC(N)=O)NC(=O)[C@H](CCCCN)NC(=O)[C@@H]1CCCN1C(=O)[C@H](C)NC(=O)[C@H](CC(C)C)NC(=O)[C@H](CC(C)C)NC(=O)[C@H](C)NC(=O)[C@H](CC(C)C)NC(=O)[C@H](CC(C)C)NC(=O)[C@@H](NC(=O)[C@H](C)NC(=O)[C@@H]1CCCN1C(=O)[C@H](CC(C)C)NC(=O)[C@H](CC(C)C)NC(=O)[C@H](C)NC(=O)[C@@H](NC(=O)[C@H](C)NC(=O)[C@H](C)NC(=O)CCC(=O)O)C(C)C)C(C)C)C(=O)N[C@@H](Cc1ccc(N)cc1)C(=O)O [WALL014] (Suc-AAVALLPAVLLALLAPKNNLKECGL[Phe(4-NH2)]-OH; C-terminus assumed)
IC50, compound 48/80 induced histamine secretion [1]: 230 µg/mL (≈ 82.8 µM)
maximal inhibition of compound 48/80 induced histamine secretion [1]: 83%
Inhibitor (extent of inhibition of histamine secretion from mast cells) [1]: +++ (+++ Potent inhibitor (≧80% inhibition))
block of compound 48/80 induced allergic reaction in vivo, rat skin ([2]; intradermal peptide): effectively block the allergic response in vivo
Mean Wheal Area ± STD, Compound 48/80 ([2]; intradermal peptide 1 mg/ml): 108.1 ± 15.0 (n = 2) mm^2
Mean Wheal Area ± STD, Vehicle ([2]; intradermal peptide 1 mg/ml): 87.2 ± 1.9 (n = 2) mm^2
Mean Wheal Area ± STD, Compound 48/80 ([2]; intradermal peptide 10 mg/ml): 91.5 ± 34.9 (n = 2) mm^2
Mean Wheal Area ± STD, Vehicle ([2]; intradermal peptide 10 mg/ml): 100.1 ± 38.9 (n = 2) mm^2
reduction of compound 48/80 induced allergic reaction [2, 4]: significantly reduced
reduction of compound 48/80 induced allergic reaction ([2]; intradermal peptide, lower dose or 1 hour before allergic induction): no significant inhibition
Secretagogue (histamine secretion following incubation of mast cell with different concentrations of each peptide) [3]: −
histamine secretion from mast cells on incubation with increasing concentrations of peptide alone [3]: did not result in histamine secretion

CC(C)C[C@H](NC(=O)CNC(=O)[C@H](CS)NC(=O)[C@H](CCC(=O)O)NC(=O)[C@H](CCCCN)NC(=O)[C@H](CC(C)C)NC(=O)[C@H](CC(N)=O)NC(=O)[C@H](CCC(N)=O)NC(=O)[C@H](CCCCN)NC(=O)[C@@H]1CCCN1C(=O)[C@H](C)NC(=O)[C@H](CC(C)C)NC(=O)[C@H](CC(C)C)NC(=O)[C@H](C)NC(=O)[C@H](CC(C)C)NC(=O)[C@H](CC(C)C)NC(=O)[C@@H](NC(=O)[C@H](C)NC(=O)[C@@H]1CCCN1C(=O)[C@H](CC(C)C)NC(=O)[C@H](CC(C)C)NC(=O)[C@H](C)NC(=O)[C@@H](NC(=O)[C@H](C)NC(=O)[C@H](C)NC(=O)CCC(=O)O)C(C)C)C(C)C)C(=O)N[C@@H](Cc1ccc(O)cc1)C(=O)O [WALL015] (Suc-AAVALLPAVLLALLAPKQNLKECGLY-OH; C-terminus assumed)
IC50, compound 48/80 induced histamine secretion [1]: 300 µg/mL (≈ 107 µM)
maximal inhibition of compound 48/80 induced histamine secretion [1]: 75%
Inhibitor (extent of inhibition of histamine secretion from mast cells) [1]: ++ (++ Moderate inhibitor (50%-70% inhibition))
block of compound 48/80 induced allergic reaction in vivo, rat skin ([2]; intradermal peptide): effectively block the allergic response in vivo
Wheal Area, Vehicle (representative experiment) ([2]; intradermal peptide 1 mg/ml): 110.4 mm^2
Wheal Area, Compound 48/80 (representative experiment) ([2]; intradermal peptide 1 mg/ml): 100.1 mm^2
Wheal Area, Vehicle (representative experiment) ([2]; intradermal peptide 10 mg/ml): 89.7 mm^2
Wheal Area, Compound 48/80 (representative experiment) ([2]; intradermal peptide 10 mg/ml): 75.3 mm^2
reduction of compound 48/80 induced allergic reaction [2, 4]: reduced the allergic reaction
Secretagogue (histamine secretion following incubation of mast cell with different concentrations of each peptide) [3]: −
histamine secretion from mast cells on incubation with increasing concentrations of peptide alone [3]: did not result in histamine secretion
basal level of histamine secretion compared to control cells [3]: minor inhibition of the basal level of histamine secretion
